Assay results published in patent US8541670B2, “Compositions and methods for inhibiting tumor cell growth” (priority 2007, dated 2013).
Where no end group is shown, it is not given here. red fluorescent dye = not defined here

Legend:
JAK3 = biological target: T1, JAK3 (Homo sapiens, UniProt P52333); experiment: In vitro kinase assay JAK3; assay type: biochemical; conditions: ten times higher concentration than 0.1 μM
T1 construct: endogenous in cells
T1 sequence (P52333 1-1124): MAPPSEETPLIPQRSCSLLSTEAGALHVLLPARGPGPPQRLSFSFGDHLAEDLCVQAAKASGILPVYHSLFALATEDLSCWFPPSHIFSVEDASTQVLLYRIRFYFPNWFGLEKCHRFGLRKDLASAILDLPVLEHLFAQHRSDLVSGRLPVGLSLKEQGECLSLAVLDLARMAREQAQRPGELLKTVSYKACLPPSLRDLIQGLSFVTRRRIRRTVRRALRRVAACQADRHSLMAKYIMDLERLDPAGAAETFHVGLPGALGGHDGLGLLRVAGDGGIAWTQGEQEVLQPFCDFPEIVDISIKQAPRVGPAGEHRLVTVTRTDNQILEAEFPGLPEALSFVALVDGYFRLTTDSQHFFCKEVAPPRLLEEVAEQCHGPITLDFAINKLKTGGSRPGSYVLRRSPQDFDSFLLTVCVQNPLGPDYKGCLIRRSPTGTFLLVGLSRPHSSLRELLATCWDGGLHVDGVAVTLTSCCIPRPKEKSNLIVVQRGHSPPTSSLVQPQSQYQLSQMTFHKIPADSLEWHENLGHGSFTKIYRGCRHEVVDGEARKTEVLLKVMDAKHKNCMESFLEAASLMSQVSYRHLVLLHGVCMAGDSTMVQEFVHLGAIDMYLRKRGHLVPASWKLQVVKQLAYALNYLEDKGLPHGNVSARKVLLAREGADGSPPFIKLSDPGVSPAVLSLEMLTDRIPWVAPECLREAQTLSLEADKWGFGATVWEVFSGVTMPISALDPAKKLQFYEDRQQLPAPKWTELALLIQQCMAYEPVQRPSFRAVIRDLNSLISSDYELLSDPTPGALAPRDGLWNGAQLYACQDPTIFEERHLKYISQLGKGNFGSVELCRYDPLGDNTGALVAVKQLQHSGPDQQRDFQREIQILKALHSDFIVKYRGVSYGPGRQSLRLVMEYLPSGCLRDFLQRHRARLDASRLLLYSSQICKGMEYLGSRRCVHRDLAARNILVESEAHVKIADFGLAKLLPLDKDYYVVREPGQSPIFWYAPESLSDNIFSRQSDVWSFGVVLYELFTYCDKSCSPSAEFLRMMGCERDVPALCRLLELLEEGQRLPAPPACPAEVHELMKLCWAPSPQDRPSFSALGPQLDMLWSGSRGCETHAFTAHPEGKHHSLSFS
Procedure: As a specific substrate, the phosphorylation level of GSK-3[…] at Ser-9 was also evaluated. […] The decrease was specific to the AKT phosphorylation site on GSK-3[…] at Ser-9, since a change in the phosphorylation level of GSK-3[…] at Tyr-216 or GSK-3[…] at Tyr-279 was not observed. Moreover, the in vivo reduction of the phosphorylation of AKT substrates was more obvious at the injection site, since a significant change in the phosphorylation of AKT substrates in the frontal cortex or cerebellum between the two hemispheres was not observed. […] To test the specificity/selectivity of ZaTa as the inhibitor of AKT1 versus the other major kinases, a series of in vitro kinase assays was performed at IC50 for AKT1 and at ten times higher concentrations. A panel of the following 32 kinases was first tested in vitro using the active form of each kinase and a specific substrate: AKT2, AKT3, PKA, PKC[…], PKC, PI3K[…], PI3K[…], PI3K, SGK, PAK2, PAK3, SAPK2/p38, Abl, CaMKII, CDK1/cyclinB, CDK5/p35, CK1, CK2, CSK, GSK3[…], GSK3[…], JNK1[…]1, MAPK1, p70S6K, PDGFR[…], PDGFR[…], PDK1, PKG1[…], TrkB, JAK2, JAK3, and Syk. […] However, at ten times higher concentration, ZaTa inhibited AKT2 (63%), PI3K[…] (72%), p70S6K (64%), SGK (73%), PAK3 (83%), JAK3 (79%), TrkB (84%), and Abl (42%). […]

PKA and CDK5 = experiment: In vivo phosphorylation of DARPP-32 at Thr-34 (PKA site) and Thr-75 (CDK5 site); design: species or system mouse; conditions: striatum
Procedure: As a striatal specific substrate for PKA and CDK5, the phosphorylation level of DARPP-32 was determined at Thr-34 (the PKA site) or at Thr-75 (the CDK5 site)(Huang, et al. (1999) supra).

[1] = tested on: axonal filament bundles in striatum; experiment: In vivo axon morphology, neurofilament-H staining of striatum after stereotactic injection; design: species or system mouse; conditions: 18 hours after surgery, versus DMSO hemisphere
Procedure: To determine the phenotypic effect of disrupting the AKT-PKAc complex in an in vivo setting, ZaTa peptide was stereotactically injected into the brain of a mouse and the animal was perfused 18 hours after recovery from surgery. Because AKT is known to have a role in axonal morphology (Markus, et al. (2002) Neuron 35:65-76), coronal sections of striatum were stained with neurofilament-H(NF—H), as an axonal-specific marker. […] PKA is also known to have a role in regeneration of growth cones on axons (Chierzi, et al. (2005) Eur. J. Neurosci. 21:2051-2062). Therefore, given the data provided herein, it is believed that a proper interaction between AKT and PKAc is involved in maintaining normal neuronal morphology.

PI3K = experiment: Cell-based kinase assay, phosphorylation of intracellular substrate (Ser-241 PDK1)
Procedure: As a specific substrate, the phosphorylation level of GSK-3[…] at Ser-9 was also evaluated. […] The decrease was specific to the AKT phosphorylation site on GSK-3[…] at Ser-9, since a change in the phosphorylation level of GSK-3[…] at Tyr-216 or GSK-3[…] at Tyr-279 was not observed. Moreover, the in vivo reduction of the phosphorylation of AKT substrates was more obvious at the injection site, since a significant change in the phosphorylation of AKT substrates in the frontal cortex or cerebellum between the two hemispheres was not observed. […] To test the specificity/selectivity of ZaTa as the inhibitor of AKT1 versus the other major kinases, a series of in vitro kinase assays was performed at IC50 for AKT1 and at ten times higher concentrations. […]
Phosphorylation sites for kinases analyzed herein included Ser-235/236 S6 (a substrate for p70S6K), Tyr-207 CRKL (a substrate for Abl; Zipfel, et al. (2004) supra), Ser-241 PDK1 (a substrate for PI3K), Tyr-1022/1023 JAK1 (a substrate for JAK3; Wang, et al. (2003) supra), Ser-421 Huntingtin (a substrate for SGK; Rangone, et al. (2004) supra), Tyr-783 PLC (a substrate for TrkB; Middlemas, et al. (1994) supra), and Ser-338 cRaf (a substrate for PAK3; King, et al. (1998) supra).

Substance: AKRVKGRTWTLCGTPEY [ZaTa]
- inhibition of JAK3 (JAK3): 79%
- phosphorylation of DARPP-32 at Thr-34 or Thr-75 (PKA and CDK5): did not cause any significant change
- staining pattern of axonal filament bundles (NF-H) in striatum [1]: Changes in the staining pattern of axonal filament bundles

Substance: labeled ZaTa: ZaTa peptide labeled with a red fluorescent dye at its N-terminus ({red fluorescent dye}-AKRVKGRTWTLCGTPEY; reading uncertain)
- inhibition of PI3K in cells (PI3K): did not cause inhibition
